Results on 15 compounds are retold here after patent publication US6849637B2, “Triazolo compounds as MMP inhibitors” (Warner-Lambert Company, priority 2001, dated 2005).

Structures are written as SMILES.

In one data set the test system is MMP-1, MMP-2, MMP-3, MMP-9 and MMP-13. Conditions: prior art compounds, collagenase, gelatinase and stromelysin type MMPs; cited from earlier work.
In the case of `CC1(C)SCCN(S(=O)(=O)c2ccc(Oc3ccncc3)cc2)[C@H]1C(=O)NO` [AG-3340], the “inhibition of MMP-1, MMP-2, MMP-3, MMP-9 and MMP-13 (non-selective)” value was “simultaneously inhibit”. `COc1ccc(S(=O)(=O)N(Cc2cccnc2)[C@@H](C(=O)NO)C(C)C)cc1` [CGS-27.023A]: the “inhibition of MMP-1, MMP-2, MMP-3, MMP-9 and MMP-13 (non-selective)” value is recorded as “simultaneously inhibit”.

Test system in a further data set: not given
Settings: not given
One may read the melting point as the temperature, or range, at which the solid turns liquid. In turn, `COC(=O)c1ccc(Cn2c(=O)c3cc(C(=O)NCc4ccc5c(c4)OCO5)ccc3n3cnnc23)cc1` [Example 10, Methyl 4-{7-[(1,3-benzodioxol-5-ylmethyl)-carbamoyl]-5-oxo-5H-[1,2,4]triazolo[4,3-a]quinazol-4-ylmethyl}benzoate] displayed a melting point of 248 °C. The same measure, in the same setting: with `COC(=O)c1ccc(Cn2c(=O)c3cc(C(=O)NCc4ccc(OC)cc4)ccc3n3cnnc23)cc1` [Example 11, Methyl 4-{7-[(4-methoxybenzyl)-carbamoyl]-5-oxo-5H-[1,2,4]triazolo[4,3-a]quinazol-4-ylmethyl}benzoate] the figure was 210 °C; with `COC(=O)c1ccc(Cn2c(=O)c3cc(C(=O)NCc4ccncc4)ccc3n3cnnc23)cc1` [Example 12, Methyl 4-{7-[(pyridin-4-ylmethyl)-carbamoyl]-5-oxo-5H-[1,2,4]triazolo[4,3-a]quinazol-4-ylmethyl}benzoate], 235 °C. For `CN(C)CCOC(=O)c1ccc(Cn2c(=O)c3cc(C(=O)NCc4ccc(F)cc4)ccc3n3cnnc23)cc1` [Example 13, (2-Dimethylamino-ethyl) 4-[7-(4-fluoro-benzylcarbamoyl)-5-oxo-5H-[1,2,4]triazolo[4,3-a]quinazol-4-ylmethyl]benzoate], the melting point is 175 °C. On the same count and under the same terms, under `N#Cc1ccc(Cn2c(=O)c3cc(C(=O)NCc4ccncc4)ccc3n3cnnc23)cc1` [Example 15, N-(pyridin-4-ylmethyl)-4-(4-cyanobenzyl)-5-oxo-4H-[1,2,4]triazolo[4,3-a]quinazol-7-ylcarboxamide] stands 300 °C; under `COC(=O)Cc1ccc(Cn2c(=O)c3cc(C(=O)NCc4ccc(OC)cc4)ccc3n3cnnc23)cc1` [Example 17, Methyl (4-{7-[(4-methoxy)-benzylcarbamoyl]-5-oxo-5H-[1,2,4]triazolo[4,3-a]quinazolin-4-ylmethyl}-phenyl)-acetate], 204 °C. As to `O=C(NCc1ccncc1)c1ccc2c(c1)c(=O)n(C/C=C/c1ccncc1)c1nncn21` [Example 19, N-(pyridin-4-ylmethyl) 4-[3-(pyridin-4-yl)-2-propen-1-yl]-5-oxo-4H-[1,2,4]triazolo[4,3-a]quinazol-7-ylcarboxamide], the melting point amounted to 250 °C.

The compound `COc1ccc(CNC(=O)c2ccc3c(c2)c(=O)n(CCOc2ccc(Cl)cc2)c2nncn32)cc1` [Example 20, 4-[2-(4-Chloro-phenoxy)-ethyl]-5-oxo-4,5-dihydro-[1,2,4]triazolo[4,3-a]quinazoline-7-carboxylic acid 4-methoxy-benzylamide] returned a melting point of 186 °C. The same measure, in the same setting: with `O=C(O)c1ccc(Cn2c(=O)c3cc(C(=O)NCc4ccc5c(c4)OCO5)ccc3n3cnnc23)cc1` [Example 22, 4-{7-[(1,3-Benzodioxol-5-ylmethyl)-carbamoyl]-5-oxo-5H-[1,2,4]triazolo[4,3]quinazol-4-ylmethyl}benzoic acid] the figure was 235 °C. For the compound `O=C(O)c1ccc(Cn2c(=O)c3cc(C(=O)NCc4ccncc4)ccc3n3cnnc23)cc1` [Example 23, 4-{7-[(Pyridin-4-ylmethyl)-carbamoyl]-5-oxo-5H-[1,2,4]triazolo[4,3-a]quinazol-4-ylmethyl}benzoic acid], the melting point came out at 255 °C. Still for that read-out and setting: with `O=C(O)c1ccc(Cn2c(=O)c3cc(C(=O)NCc4ccc(F)cc4)ccc3n3cnnc23)cc1` [Example 24, 4-{7-[(4-Fluoro)-benzylcarbamoyl]-5-oxo-5H-[1,2,4]triazolo[4,3-a]quinazol-4-ylmethyl}benzoic acid] the figure was 303 °C. Still for that read-out and setting: with `COc1ccc(CNC(=O)c2ccc3c(c2)c(=O)n(Cc2ccc(CC(=O)O)cc2)c2nncn32)cc1` [Example 25, (4-{7-[(4-Methoxy)-benzylcarbamoyl]-5-oxo-5H-[1,2,4]triazolo[4,3-a]quinazolin-4-ylmethyl}-phenyl)-acetic acid] the figure was 268 °C; with `O=C(O)Cc1ccc(Cn2c(=O)c3cc(C(=O)NCc4ccc5c(c4)OCO5)ccc3n3cnnc23)cc1` [Example 26, (4-{7-[(1,3-Benzodioxol-5-ylmethyl)-carbamoyl]-5-oxo-5H-[1,2,4]triazolo[4,3-a]quinazolin-4-ylmethyl}-phenyl)-acetic acid], 232 °C.
